According to patent publication US10463651B2, “3-(1H-pyrrolo[3,2-C]pyridin-2-YL)-1H-indazoles and therapeutic uses thereof” (Samumed, LLC, priority 2015, dated 2019):

What was measured:
Format in all cases: cell-based
[1] = tested on: IL-6 (THP-1 cells); experiment: IL-6 inhibition in LPS-stimulated THP-1 cells (HTRF); conditions: Homo sapiens; for EC50: IL6 by HTRF, THP-1 cells, 500 ng/mL LPS, 22 hours; for inhibition at 10 µM: THP-1, read-out: percent inhibition at 10 M
Experimental: THP-1 cells were cultured in basal media with 1% FBS for 24 hours before the start of the assay. […] THP-1 cells were plated at 5000 cells/well in the 384-well plates and incubated at 37° C. for 2 h. 500 ng/mL of LPS was added after 2 hours and cells were incubated for another 22 hours at 37° C. Plates were spun in a centrifuge for 1 minute at […] and a mixture of anti-IL6 XL665, and anti-IL6 Cryptate diluted in reconstitution buffer (Cisbio Inc.) was added to each well. Following incubation for 3 hrs at room temperature, Homogeneous Time-Resolved Fluorescence (HTRF) was measured using the Envision (Perkin Elmer) at 665 nm and […]. The ratio of fluorescence at 665 nm to 620 nm was used as a readout for IL6 quantification. All samples were processed in duplicate. Readings were normalized to DMSO treated cells and normalized activities were utilized for EC50 calculations using the dose-response log (inhibitor) vs. response-variable slope (four parameters) nonlinear regression feature available in GraphPad Prism 5.0 (or Dotmatics).

[2] = tested on: primary human fibroblasts derived from IPF patients (LL29 cells) treated with TGF-β1; experiment: Inhibition of the fibrotic process (αSMA staining) in TGF-β1-treated fibroblasts; conditions: Fibroblast, 96 h; for EC50: % αSMA-positive LL29 cells, TGF-β1 20 ng/mL, 4 days; for inhibition at 10 µM: read-out: percent inhibition at 10 μM
Experimental: Representative compounds were screened using primary human fibroblasts (derived from IPF patients) treated with TGF-β1 to determine their ability to inhibit the fibrotic process.
LL29 cells are plated at 1,500 cells/well in 80 μL/well F12 medium supplemented with 1% Fetal Bovine Serum. […] Wells treated with TGF-P1 and containing DMSO were used as controls. […] Following incubation for 4 days, SYTOX green nucleic acid stain (Life Technologies [Thermo Fisher Scientific]) was added to the wells at a final concentration of 1 μM and incubated at room temperature for 30 min.

[3] = tested on: SW480 colon cancer cells; experiment: Cell viability assay (CellTiter-Blue); conditions: Homo sapiens; for EC50: 96 h, SW480 cell viability, four days, CellTiter-Blue; for inhibition at 10 µM: SW480, 96 h, read-out: percent inhibition at 10 μM
Experimental: Representative compounds were screened using the following assay procedure to assess the effect on cell viability as described below.
Approximately 2×10^3 SW480 colon cancer cells were seeded into each well and allowed to incubate in the presence or absence of compound for four days at 37° C./5% CO2. Eight replicates of DMSO-treated cells served as controls and cells treated with compound were performed in duplicate.
After incubation, 20 μL of CellTiter-Blue (Promega) was added to each well allowed to incubate for approximately 3 hours. This reagent was a buffered solution which contains resazurin, metabolically active cells were able to reduce rezarurin (blue) into resorufin (pink) which was highly fluorescent. This measured fluorescence was used as a readout for cell viability.

[4] = tested on: Wnt activity (Sp5-Luc reporter, SW480 colon carcinoma cells); experiment: Screening assay for Wnt activity (Sp5-Luc reporter gene assay in SW480 cells); conditions: Homo sapiens; for EC50: Sp5-Luc reporter, SW480 cells, incubated overnight; for inhibition at 10 µM: SW480, read-out: percent inhibition at 10 μM
Excerpt: The screening assay for Wnt activity is described as follows. Reporter cell lines can be generated by stably transducing cancer cell lines (e.g., colon cancer) or primary cells (e.g., IEC-6 intestinal cells) with a lentiviral construct that includes a Wnt-responsive promoter driving expression of the firefly luciferase gene.
SW480 colon carcinoma cells were transduced with a lentiviral vector expressing luciferase with a human Sp5 promoter consisting of a sequence of eight TCF/LEF binding sites. SW480 cells stably expressing the Sp5-Luc reporter gene and a hygromycin resistance gene were selected by treatment with 150 μg/mL of hygromycin for 7 days. These stably transduced SW480 cells were expanded in cell culture and used for all further screening activities. […] For Sp5-Luc reporter gene assays, the cells were plated at 4,000 cells/well in 384-well plates with medium containing 1% fetal bovine serum and incubated overnight at 37° C. and 5% CO2. Following incubation, 20 μl of BrightGlo luminescence reagent (Promega) was added to each well of the 384-well assay plates. The plates were placed on an orbital shaker for 2 min and then luminescence was quantified using the Envision (Perkin Elmer) plate reader. Readings were normalized to DMSO only treated cells, and normalized activities were utilized for EC50 calculations using the dose-response log (inhibitor) vs. response-variable slope (four parameters) nonlinear regression feature available in GraphPad Prism 5.0 (or Dotmatics).

Structure (SMILES)	EC50 [1]	EC50 [2]	EC50 [3]	EC50 [4]	inhibition at 10 µM [1]	inhibition at 10 µM [3]	inhibition at 10 µM [4]	inhibition at 10 µM [2]
CN(C)CCOc1cncc(-c2ccc3[nH]nc(-c4cc5c(-c6ccc(F)cc6)nccc5[nH]4)c3c2)c1 [Compound 531, 2-((5-(3-(4-(4-fluorophenyl)-1H-pyrrolo[3,2-c]pyridin-2-yl)-1H-indazol-5-yl)pyridin-3-yl)oxy)-N,N-dimethylethan-1-amine]	7.05 µM	0.908 µM	1.19 µM	3.38 µM				
CC(C)CC(=O)Nc1cncc(-c2ccc3[nH]nc(-c4cc5c(N6CCN(C)CC6)nccc5[nH]4)c3c2)c1 [Compound 226, 3-Methyl-N-(5-(3-(4-(4-methylpiperazin-1-yl)-1H-pyrrolo[3,2-c]pyridin-2-yl)-1H-indazol-5-yl)pyridin-3-yl)butanamide]	1.42 µM	2.96 µM	2.87 µM	1.9 µM				
CS(=O)(=O)NCc1cc(F)cc(-c2nccc3[nH]c(-c4n[nH]c5ccc(-c6ccccn6)cc45)cc23)c1 [Compound 504, N-(3-Fluoro-5-(2-(5-(pyridin-2-yl)-1H-indazol-3-yl)-1H-pyrrolo[3,2-c]pyridin-4-yl)benzyl)methanesulfonamide]	> 10 µM	2.13 µM	5.54 µM	3.61 µM	40.6%			
c1cncc(-c2ccc3[nH]nc(-c4cc5c(-c6ccsc6)nccc5[nH]4)c3c2)c1 [Compound 284, 5-(Pyridin-3-yl)-3-(4-(thiophen-3-yl)-1H-pyrrolo[3,2-c]pyridin-2-yl)-1H-indazole]	1.1 µM	0.648 µM	0.661 µM	1.25 µM				
CC(C)CC(=O)Nc1cncc(-c2ccc3[nH]nc(-c4cc5c(-c6ccc(F)cc6)nccc5[nH]4)c3c2)c1 [Compound 30, N-(5-(3-(4-(4-Fluorophenyl)-1H-pyrrolo[3,2-c]pyridin-2-yl)-1H-indazol-5-yl)pyridin-3-yl)-3-methylbutanamide]	1.3 µM	0.329 µM	0.439 µM	0.442 µM				
CS(=O)(=O)NCc1cc(F)cc(-c2nccc3[nH]c(-c4n[nH]c5ccc(-c6cncc(NC(=O)C7CCCC7)c6)cc45)cc23)c1 [Compound 498, N-(5-(3-(4-(3-Fluoro-5-(methylsulfonamidomethyl)phenyl)-1H-pyrrolo[3,2-c]pyridin-2-yl)-1H-indazol-5-yl)pyridin-3-yl)cyclopentanecarboxamide]	0.103 µM	3.5 µM	1.14 µM	0.741 µM				
O=C(Nc1cncc(-c2ccc3[nH]nc(-c4cc5c(-c6ccc(F)cc6)nccc5[nH]4)c3c2)c1)c1ccccc1 [Compound 39, N-(5-(3-(4-(4-Fluorophenyl)-1H-pyrrolo[3,2-c]pyridin-2-yl)-1H-indazol-5-yl)pyridin-3-yl)benzamide]	3.46 µM	0.501 µM	0.54 µM	1.61 µM				
CCCC(=O)Nc1cncc(-c2ccc3[nH]nc(-c4cc5cnccc5[nH]4)c3c2)c1 [Compound 269, N-(5-(3-(1H-Pyrrolo[3,2-c]pyridin-2-yl)-1H-indazol-5-yl)pyridin-3-yl) butyramide]	0.154 µM	0.149 µM	0.455 µM	0.105 µM				
CN1CCN(c2nccc3[nH]c(-c4n[nH]c5ccc(-c6cncnc6)cc45)cc23)CC1 [Compound 251, 3-(4-(4-Methylpiperazin-1-yl)-1H-pyrrolo[3,2-c]pyridin-2-yl)-5-(pyrimidin-5-yl)-1H-indazole]	8.26 µM	9.7 µM	> 10 µM	> 10 µM		20%	20.2%	
CC(C)CC(=O)Nc1cncc(-c2ccc3[nH]nc(-c4cc5c(-c6cc(F)cc(CNS(C)(=O)=O)c6)nccc5[nH]4)c3c2)c1 [Compound 478, N-(5-(3-(4-(3-Fluoro-5-(methylsulfonamidomethyl)phenyl)-1H-pyrrolo[3,2-c]pyridin-2-yl)-1H-indazol-5-yl)pyridin-3-yl)-3-methylbutanamide]	0.115 µM	2.37 µM	1.07 µM	0.581 µM				
c1cc(-c2ccc3[nH]nc(-c4cc5c(N6CCCCC6)nccc5[nH]4)c3c2)ccn1 [Compound 186, 3-(4-(Piperidin-1-yl)-1H-pyrrolo[3,2-c]pyridin-2-yl)-5-(pyridin-4-yl)-1H-indazole]	> 10 µM	0.832 µM	1.02 µM	2.1 µM	53.9%			
NC1CN(c2cncc(-c3ccc4[nH]nc(-c5cc6c(N7CCCCC7)nccc6[nH]5)c4c3)n2)C1 [Compound 606, 1-(6-(3-(4-(Piperidin-1-yl)-1H-pyrrolo[3,2-c]pyridin-2-yl)-1H-indazol-5-yl)pyrazin-2-yl)azetidin-3-amine]	0.066 µM	0.236 µM	2.79 µM	1.76 µM				
Fc1cccc(-c2nccc3[nH]c(-c4n[nH]c5ccc(-c6ccccn6)cc45)cc23)c1 [Compound 28, 3-(4-(3-Fluorophenyl)-1H-pyrrolo[3,2-c]pyridin-2-yl)-5-(pyridin-2-yl)-1H-indazole]	3.09 µM	0.421 µM	0.576 µM	1.08 µM				
Fc1ccccc1-c1nccc2[nH]c(-c3n[nH]c4ccc(-c5cncc(OC6CCNCC6)c5)cc34)cc12 [Compound 544, 3-(4-(2-Fluorophenyl)-1H-pyrrolo[3,2-c]pyridin-2-yl)-5-(5-(piperidin-4-yloxy)pyridin-3-yl)-1H-indazole]	2.49 µM	> 10 µM	2.62 µM	2.34 µM				0%
CN1CCN(c2nccc3[nH]c(-c4n[nH]c5ccc(-c6cncc(NC(=O)C7CCCC7)c6)cc45)cc23)CC1 [Compound 246, N-(5-(3-(4-(4-Methylpiperazin-1-yl)-1H-pyrrolo[3,2-c]pyridin-2-yl)-1H-indazol-5-yl)pyridin-3-yl)cyclopentanecarboxamide]	9.51 µM	> 10 µM	> 10 µM	> 10 µM		34.3%	17.1%	0%
Fc1ccc(-c2nccc3[nH]c(-c4n[nH]c5ccc(C6=CCNCC6)cc45)cc23)cc1 [Compound 522, 3-(4-(4-Fluorophenyl)-1H-pyrrolo[3,2-c]pyridin-2-yl)-5-(1,2,3,6-tetrahydropyridin-4-yl)-1H-indazole]	> 10 µM	1.43 µM	2.17 µM	3.78 µM	4.1%			
CC(C)(C)CC(=O)Nc1cncc(-c2ccc3[nH]nc(-c4cc5c(-c6ccc(F)cc6)nccc5[nH]4)c3c2)c1 [Compound 44, N-(5-(3-(4-(4-Fluorophenyl)-1H-pyrrolo[3,2-c]pyridin-2-yl)-1H-indazol-5-yl)pyridin-3-yl)-3,3-dimethylbutanamide]	> 10 µM	> 10 µM	> 10 µM	> 10 µM	35%	7.7%	19.5%	0%
Fc1cccc(-c2nccc3[nH]c(-c4n[nH]c5ccc(C6CCNCC6)cc45)cc23)c1 [Compound 505, 3-(4-(3-Fluorophenyl)-1H-pyrrolo[3,2-c]pyridin-2-yl)-5-(piperidin-4-yl)-1H-indazole]	0.723 µM	3.32 µM	3.84 µM	3.59 µM				
